Results from ChEMBL document CHEMBL1142804, “Design, synthesis, and evaluation of novelly substituted benzimidazole compounds as angiotensin II receptor antagonists” (Bioorg Med Chem Lett, 2005).

Assays:
Format in all cases: functional
[1] = Noncompetitive antagonism of Angiotensin II receptor in endothelium removed isolated rat aortic ring
[2] = Noncompetitive antagonism of Angiotensin II receptor in endothelium removed isolated rat aortic ring; (n = 5); conditions: read-out: pA2 (converted)
[3] = Competitive antagonism of Angiotensin II receptor in endothelium removed isolated rat aortic ring; (n = 5); conditions: read-out: pA2 (converted)
[4] = Competitive antagonism of Angiotensin II receptor in endothelium removed isolated rat aortic ring

Structure (SMILES)	pA10 [1]	Kb [2]	Kb [3]	pA10 [4]
CCCc1nc2c([N+](=O)[O-])cccc2n1Cc1ccc(-c2ccccc2C(=O)O)cc1	2.9	79.4 nM	–	–
CCCCc1nc2c([N+](=O)[O-])cccc2n1Cc1ccc(-c2ccccc2C(=O)O)cc1	1.8	3.16 nM	–	–
CCCCc1nc2c(N)cccc2n1Cc1ccc(-c2ccccc2C(=O)O)cc1	–	–	15.8 nM	6.9
CCOCc1nc2c([N+](=O)[O-])cccc2n1Cc1ccc(-c2ccccc2C(=O)O)cc1	1.7	50.1 nM	–	–
CCc1nc2c([N+](=O)[O-])cccc2n1Cc1ccc(-c2ccccc2C(=O)O)cc1	3.4	100 nM	–	–
CCCCc1nc2ccccc2n1Cc1ccc(-c2ccccc2C(=O)O)cc1	–	–	355 nM	5.81
CCOc1nc2cccc(C(=O)O)c2n1Cc1ccc(-c2ccccc2-c2nnn[nH]2)cc1 [CANDESARTAN]	–	–	9.55 nM	7.1
CCCCc1nc(Cl)c(CO)n1Cc1ccc(-c2ccccc2-c2nnn[nH]2)cc1 [LOSARTAN]	–	–	39.8 nM	6.5
